Assay results taken from patent US20250235455A1, “AQUEOUS TICAGRELOR SOLUTIONS, METHOD OF MANUFACTURING AND USES” (HYLORIS DEVELOPMENTS SA, priority 2022, published 2025).

Columns and labels:
[1] = Storage stability in amber glass vials at pH 7, 7.5 and 8, 19 mM buffer; assay type: physicochemical; conditions: for Acetal impurity / Amine impurity / Description / Regiomer / Sum Impurities >0.05 / Total impurity / Triol impurity / pH / Assay: HPβCD 40% w/w; for Assay: in %
Procedure: To optimize the HPβCD concentration and the pH of the solution for intravenous use, a 12 week/3 months stability study was conducted. […] Its stability was tested at regular intervals.
A comparison of stability profile at 3 different pH—7, 7.5 and 8—was carried out as below, the manufacturing process for all 3 formulations was kept constant with buffer strength at 19 mM.

[2] = phosphate buffered solution pH 7.4, normal laboratory light and temperature; cited from earlier work
[3] = 19 mM pH 7 Phosphate Buffer, 1 M
[4] = 19 mM pH 7 Phosphate Buffer, 2 M
[5] = 19 mM pH 7 Phosphate Buffer, 3 M
[6] = 19 mM pH 7 Phosphate Buffer, T0
[7] = 19 mM pH 7.5 Phosphate Buffer, 1 M
[8] = 19 mM pH 7.5 Phosphate Buffer, 2 M
[9] = 19 mM pH 7.5 Phosphate Buffer, 3 M
[10] = 19 mM pH 7.5 Phosphate Buffer, T0
[11] = 19 mM pH 8 Phosphate buffer, 1 M
[12] = 19 mM pH 8 Phosphate buffer, 2 M
[13] = 19 mM pH 8 Phosphate buffer, 3 M
[14] = 19 mM pH 8 Phosphate buffer, T0

For CCCSc1nc(N[C@@H]2C[C@H]2c2ccc(F)c(F)c2)c2nnn([C@@H]3C[C@H](OCCO)[C@@H](O)[C@H]3O)c2n1 [Ticagrelor, (1S,2S,3R,5S)-3-{7-[(1R,2S)-2-(3,4-difluorophenyl)cyclopropylamino]5-(propylthio)-3H-(1,2,3)triazolo (4,5-D)pyrimidin-3-yl}-5-(2 hydroxyethoxy)cyclopentane-1,2-diol], the Acetal impurity [1, 3] was 0.05%, the Amine impurity [1, 3] was 0.04% and the Description [1, 3] was “clear”. For the same compound, the Regiomer [1, 3] was 0.03%, the “Sum Impurities >0.05” value [1, 3] was 0.05% and the Total impurity [1, 3] was 0.27%. The Triol impurity [1, 3] was 0.02%, the pH [1, 3] was 7.34 and the Assay [1, 3] was 99.73. The Acetal impurity [1, 4] was 0.05%, the Amine impurity [1, 4] was 0.04% and the Description [1, 4] was “clear”. For the same compound, the Regiomer [1, 4] was 0.06%, the “Sum Impurities >0.05” value [1, 4] was 0.11% and the Total impurity [1, 4] was 0.34%. For the same compound, the Triol impurity [1, 4] was 0.04%, the pH [1, 4] was 7.34 and the Assay [1, 4] was 99.81. For the same compound, the Acetal impurity [1, 5] was 0.05%, the Amine impurity [1, 5] was 0.06% and the Description [1, 5] was “clear”. The Regiomer [1, 5] was 0.11%, the “Sum Impurities >0.05” value [1, 5] was 0.22% and the Total impurity [1, 5] was 0.40%. For the same compound, the Triol impurity [1, 5] was 0.04%, the pH [1, 5] was 7.30 and the Assay [1, 5] was 98.51. For the same compound, the Acetal impurity [1, 6] was 0.05%, the Amine impurity [1, 6] was 0.04% and the Description [1, 6] was “clear”. The Regiomer [1, 6] was 0.00%, the “Sum Impurities >0.05” value [1, 6] was 0.22% and the Total impurity [1, 6] was 0.41%. For the same compound, the Triol impurity [1, 6] was 0.05%, the pH [1, 6] was 7.33 and the Assay [1, 6] was 98.95. The Acetal impurity [1, 7] was 0.05%, the Amine impurity [1, 7] was 0.05% and the Description [1, 7] was “clear”. The Regiomer [1, 7] was 0.01%, the “Sum Impurities >0.05” value [1, 7] was 0.14% and the Total impurity [1, 7] was 0.32%. For the same compound, the Triol impurity [1, 7] was 0.05%, the pH [1, 7] was 7.50 and the Assay [1, 7] was 104.47. The Acetal impurity [1, 8] was 0.05%, the Amine impurity [1, 8] was 0.05% and the Description [1, 8] was “clear”. The Regiomer [1, 8] was 0.04%, the “Sum Impurities >0.05” value [1, 8] was 0.15% and the Total impurity [1, 8] was 0.29%. The Triol impurity [1, 8] was 0.05%, the pH [1, 8] was 7.48 and the Assay [1, 8] was 102.59. The Acetal impurity [1, 9] was 0.05%, the Amine impurity [1, 9] was 0.05% and the Description [1, 9] was “clear”. The Regiomer [1, 9] was 0.08%, the “Sum Impurities >0.05” value [1, 9] was 0.23% and the Total impurity [1, 9] was 0.41%. The Triol impurity [1, 9] was 0.04%, the pH [1, 9] was 7.55 and the Assay [1, 9] was 102.31. The Acetal impurity [1, 10] was 0.05%, the Amine impurity [1, 10] was 0.04% and the Description [1, 10] was “clear”. The Regiomer [1, 10] was 0.00%, the “Sum Impurities >0.05” value [1, 10] was 0.11% and the Total impurity [1, 10] was 0.31%. The Triol impurity [1, 10] was 0.04%, the pH [1, 10] was 7.40 and the Assay [1, 10] was 104.27. For the same compound, the Acetal impurity [1, 11] was 0.05%, the Amine impurity [1, 11] was 0.05% and the Description [1, 11] was “clear”. The Regiomer [1, 11] was 0.01%, the “Sum Impurities >0.05” value [1, 11] was 0.09% and the Total impurity [1, 11] was 0.26%. For the same compound, the Triol impurity [1, 11] was 0.03%, the pH [1, 11] was 8.10 and the Assay [1, 11] was 105.88. For the same compound, the Acetal impurity [1, 12] was 0.05%, the Amine impurity [1, 12] was 0.05% and the Description [1, 12] was “clear”. The Regiomer [1, 12] was 0.03%, the “Sum Impurities >0.05” value [1, 12] was 0.15% and the Total impurity [1, 12] was 0.32%. For the same compound, the Triol impurity [1, 12] was 0.05%, the pH [1, 12] was 8.04 and the Assay [1, 12] was 105.46. For the same compound, the Acetal impurity [1, 13] was 0.05%, the Amine impurity [1, 13] was 0.07% and the Description [1, 13] was “clear”. The Regiomer [1, 13] was 0.06%, the “Sum Impurities >0.05” value [1, 13] was 0.23% and the Total impurity [1, 13] was 0.37%. For the same compound, the Triol impurity [1, 13] was 0.05%, the pH [1, 13] was 8.03 and the Assay [1, 13] was 104.46. For the same compound, the Acetal impurity [1, 14] was 0.05%, the Amine impurity [1, 14] was 0.04% and the Description [1, 14] was “clear”. For the same compound, the Regiomer [1, 14] was 0.00%, the “Sum Impurities >0.05” value [1, 14] was 0.25% and the Total impurity [1, 14] was 0.43%. For the same compound, the Triol impurity [1, 14] was 0.06%, the pH [1, 14] was 8.07 and the Assay [1, 14] was 103.25. For the same compound, the “Stability of solution in HPβCD” value ([1]; pH range of 7 to 8) was “stable” and the “Ticagrelor concentration on storage” value [2] was “declined after 1 month”.
